Values of other authors, collected in publication PMC9127185, “A Pyridazinone Compound for Effectively Treating Non-alcoholic Steatohepatitis by Targeting THRβ” (Frontiers in Chemistry, 2022).

Set-up: method as in Harrison et al., 2019
Settings: ref Harrison et al., 2019; cited from earlier work

## CC(C)c1cc(Oc2c(Cl)cc(-n3nc(C#N)c(=O)[nH]c3=O)cc2Cl)n[nH]c1=O [resmetirom, 2-[3,5-Dichloro-4-(5-Isopropyl-6-Oxo-1,6-Dihydropyridazin-3-Yloxy)phenyl]-3,5-Dioxo-2,3,4,5-Tetrahydro[1,2,4]triazine-6-Carbonitrile]
  Distribution: liver-specific distribution
  Effect on low density lipoprotein and triglyceride: reduced both low density lipoprotein and triglyceride effectively
